Values quoted from earlier work in patent US6756057B2, “Amoxicillin and potassium clavulanate dosage form” (Beecham Pharmaceuticals (pte) Limited, priority 2000, dated 2004).

Settings: in vivo

CC1(C)S[C@@H]2[C@H](NC(=O)[C@H](N)c3ccc(O)cc3)C(=O)N2[C@H]1C(=O)O [amoxicillin]
elimination half-life: about 1.3 hours
